In patent US12139520B2 (priority 2020, dated 2024):
Bridge positions count the residues as written; N and C are the ends. Square brackets hold non-standard residues; d marks the D form. Peptide text beside a SMILES is read from it. Hyp = O=C(O)[C@@H]1C[C@@H](O)CN1

Key:
hAMY3 receptor = target: T1, hAMY3 receptor (Homo sapiens, UniProt O60896+P30988); assay: cAMP assay for in vitro receptor activation, hAMY3-R; type: cell-based; conditions: cAMP assay, hAMY3 receptor; read-out: hAMY3R EC50
T1 sequence (P30988 25-474): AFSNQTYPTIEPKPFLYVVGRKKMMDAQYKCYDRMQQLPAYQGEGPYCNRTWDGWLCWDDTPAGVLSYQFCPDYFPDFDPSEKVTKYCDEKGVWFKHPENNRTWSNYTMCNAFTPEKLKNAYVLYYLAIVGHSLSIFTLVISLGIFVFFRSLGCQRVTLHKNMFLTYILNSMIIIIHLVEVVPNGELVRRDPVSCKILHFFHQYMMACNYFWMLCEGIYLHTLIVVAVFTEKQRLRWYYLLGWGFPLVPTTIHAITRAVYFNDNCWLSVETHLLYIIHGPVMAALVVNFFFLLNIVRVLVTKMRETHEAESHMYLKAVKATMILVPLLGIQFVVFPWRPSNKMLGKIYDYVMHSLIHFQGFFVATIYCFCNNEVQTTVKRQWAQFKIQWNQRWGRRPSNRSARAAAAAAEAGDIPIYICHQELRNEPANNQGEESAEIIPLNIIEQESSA
T1 sequence (O60896 24-148 partner): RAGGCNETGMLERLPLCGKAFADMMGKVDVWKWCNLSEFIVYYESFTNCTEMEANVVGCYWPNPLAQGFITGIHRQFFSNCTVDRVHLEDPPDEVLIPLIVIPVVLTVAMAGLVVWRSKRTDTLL
How it was run: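 Thawed cells from a sub-cloned monoclonal hAMY3-overexpressing line are plated in DPBS containing 0.05% casein and 0.5 mM IBMX. Test compounds are added immediately at graded doses for 30 min at room temperature. Reagents for cAMP detection are then added, and TR-FRET is recorded after one hour.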

[1] = Physical stability of peptide analogues (Thioflavin T fibrillation); type: physicochemical; conditions: maximum ThT signal normalized between hAMY maximum and buffer background; 40° C., shaking, four days; pH 7 per table title
How it was run: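 Samples are stressed at 40 °C for four days, being shaken at 700 rpm before each 10-min fluorescence reading of 4 μM Thioflavin T. Buffers were pH 4 acetate or pH 7 phosphate. Reported values are smoothed maximum ThT signals as a percentage of the hAMY-to-background range.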

SMILES | EC50 (hAMY3 receptor) | Max ThT signal (%) [1]
CC[C@H](C)[C@H](NC(=O)[C@H](CCC(N)=O)NC(=O)[C@H](Cc1c[nH]cn1)NC(=O)[C@H](C)NC(=O)[C@H](CC(C)C)NC(=O)[C@H](CCCNC(=N)N)NC(=O)[C@H](CCC(N)=O)NC(=O)[C@@H](NC(=O)[C@@H](NC(=O)[C@@H]1CSSC[C@H](NC(=O)CN)C(=O)N[C@@H](CCCNC(=N)N)C(=O)N[C@@H](Cc2ccccc2)C(=O)NCC(=O)N[C@@H]([C@@H](C)O)C(=O)N1)[C@@H](C)O)C(C)C)C(=O)N[C@@H](Cc1ccc(O)cc1)C(=O)N[C@@H](CCC(N)=O)C(=O)N[C@@H](Cc1ccccc1)C(=O)N[C@H](C(=O)N[C@@H](CC(=O)O)C(=O)N[C@@H](CCCCN)C(=O)N[C@@H](CC(=O)O)C(=O)N[C@@H](CCCCN)C(=O)N[C@@H](CC(=O)O)C(=O)N[C@@H](CC(N)=O)C(=O)N[C@H](C(=O)N[C@@H](C)C(=O)N1CCC[C@H]1C(=O)N[C@@H](CCCNC(=N)N)C(=O)N[C@H](C(=O)N[C@@H](CCCCN)C(=O)N[C@H](C(=O)NCC(=O)N1CCC[C@H]1C(=O)N[C@@H](CCC(N)=O)C(=O)NCC(=O)N1C[C@H](O)C[C@H]1C(N)=O)C(C)C)[C@@H](C)O)C(C)C)[C@@H](C)O [compound 45] (H-GCRFGTCTVQRLAHQIYQFTDKDKDNVAPRTKVGPQG[Hyp]-NH2; disulfide 2-7; N-terminus assumed) | 11 pM | 3.000%
CC[C@H](C)[C@H](NC(=O)[C@H](CC(N)=O)NC(=O)[C@@H](NC(=O)[C@H](CCCNC(=N)N)NC(=O)[C@@H]1CCCN1C(=O)[C@H](C)NC(=O)[C@@H](NC(=O)[C@H](CC(N)=O)NC(=O)[C@H](CC(=O)O)NC(=O)[C@H](CCCCN)NC(=O)[C@H](CC(=O)O)NC(=O)[C@H](CCCCN)NC(=O)[C@H](CC(=O)O)NC(=O)[C@@H](NC(=O)[C@H](Cc1ccccc1)NC(=O)[C@H](CCC(N)=O)NC(=O)[C@H](Cc1ccc(O)cc1)NC(=O)[C@@H](NC(=O)[C@H](CCC(N)=O)NC(=O)[C@H](Cc1c[nH]cn1)NC(=O)[C@H](C)NC(=O)[C@H](CC(C)C)NC(=O)[C@H](CCCNC(=N)N)NC(=O)[C@H](CCC(N)=O)NC(=O)[C@@H](NC(=O)[C@@H](NC(=O)[C@@H]1CSSC[C@H](NC(=O)CN)C(=O)N[C@@H](CCCNC(=N)N)C(=O)N[C@@H](Cc2ccccc2)C(=O)NCC(=O)N[C@@H]([C@@H](C)O)C(=O)N1)[C@@H](C)O)C(C)C)[C@@H](C)CC)[C@@H](C)O)C(C)C)[C@@H](C)O)C(=O)NCC(=O)N1CCC[C@H]1C(=O)N[C@@H](CC(N)=O)C(=O)NCC(=O)N1C[C@H](O)C[C@H]1C(N)=O [compound 81] (H-GCRFGTCTVQRLAHQIYQFTDKDKDNVAPRTNIGPNG[Hyp]-NH2; disulfide 2-7; N-terminus assumed) | 15 pM | 4.000%
CC[C@H](C)[C@H](NC(=O)[C@H](CCC(N)=O)NC(=O)[C@H](Cc1c[nH]cn1)NC(=O)[C@H](C)NC(=O)[C@H](CC(C)C)NC(=O)[C@H](CCCNC(=N)N)NC(=O)[C@H](CCC(N)=O)NC(=O)[C@@H](NC(=O)[C@@H](NC(=O)[C@@H]1CSSC[C@H](NC(=O)CN)C(=O)N[C@@H](CCCNC(=N)N)C(=O)N[C@@H](Cc2ccccc2)C(=O)NCC(=O)N[C@@H]([C@@H](C)O)C(=O)N1)[C@@H](C)O)C(C)C)C(=O)N[C@@H](Cc1ccc(O)cc1)C(=O)N[C@@H](CCC(N)=O)C(=O)N[C@@H](Cc1ccccc1)C(=O)N[C@H](C(=O)N[C@@H](CC(=O)O)C(=O)N[C@@H](CCCCN)C(=O)N[C@@H](CC(=O)O)C(=O)N[C@@H](CCCCN)C(=O)N[C@@H](CC(=O)O)C(=O)N[C@@H](CC(N)=O)C(=O)N[C@H](C(=O)N[C@@H](C)C(=O)N1CCC[C@H]1C(=O)N[C@@H](CCCNC(=N)N)C(=O)N[C@H](C(=O)N[C@@H](CC(N)=O)C(=O)N[C@H](C(=O)NCC(=O)N1CCC[C@H]1C(=O)N[C@@H](CC(N)=O)C(=O)NCC(=O)N1C[C@H](O)C[C@H]1C(N)=O)C(C)C)[C@@H](C)O)C(C)C)[C@@H](C)O [compound 90] (H-GCRFGTCTVQRLAHQIYQFTDKDKDNVAPRTNVGPNG[Hyp]-NH2; disulfide 2-7; N-terminus assumed) | 16 pM | 2.000%
CC[C@H](C)[C@H](NC(=O)[C@H](CCC(N)=O)NC(=O)[C@H](Cc1c[nH]cn1)NC(=O)[C@H](C)NC(=O)[C@H](CC(C)C)NC(=O)[C@H](CCCNC(=N)N)NC(=O)[C@H](CCC(N)=O)NC(=O)[C@@H](NC(=O)[C@@H](NC(=O)[C@@H]1CSSC[C@H](NC(=O)CN)C(=O)N[C@@H](CCCNC(=N)N)C(=O)N[C@@H](Cc2ccccc2)C(=O)NCC(=O)N[C@@H]([C@@H](C)O)C(=O)N1)[C@@H](C)O)C(C)C)C(=O)N[C@@H](Cc1ccc(O)cc1)C(=O)N[C@@H](CCC(N)=O)C(=O)N[C@@H](Cc1ccccc1)C(=O)N[C@H](C(=O)N[C@@H](CC(=O)O)C(=O)N[C@@H](CCCCN)C(=O)N[C@@H](CC(=O)O)C(=O)N[C@@H](CCCCN)C(=O)N[C@@H](CC(=O)O)C(=O)N[C@@H](CC(N)=O)C(=O)N[C@H](C(=O)N[C@@H](C)C(=O)N1CCC[C@H]1C(=O)N[C@@H](CCCNC(=N)N)C(=O)N[C@H](C(=O)N[C@@H](CC(N)=O)C(=O)N[C@H](C(=O)N[C@@H](CO)C(=O)N1CCC[C@H]1C(=O)N[C@@H](CC(N)=O)C(=O)NCC(=O)N[C@@H](Cc1ccc(O)cc1)C(N)=O)C(C)C)[C@@H](C)O)C(C)C)[C@@H](C)O [compound 98] (H-GCRFGTCTVQRLAHQIYQFTDKDKDNVAPRTNVSPNGY-NH2; disulfide 2-7; N-terminus assumed) | 17 pM | 12.600%

Continued by falling EC50 (hAMY3 receptor), values first:

EC50 (hAMY3 receptor) | Max ThT signal (%) [1] | SMILES
15 pM | 14.200% | CC[C@H](C)[C@H](NC(=O)[C@H](CCC(N)=O)NC(=O)[C@H](Cc1c[nH]cn1)NC(=O)[C@H](C)NC(=O)[C@H](CC(C)C)NC(=O)[C@H](CCCNC(=N)N)NC(=O)[C@H](CCC(N)=O)NC(=O)[C@@H](NC(=O)[C@@H](NC(=O)[C@@H]1CSSC[C@H](NC(=O)CN)C(=O)N[C@@H](CCCNC(=N)N)C(=O)N[C@@H]([C@@H](C)O)C(=O)NCC(=O)N[C@@H]([C@@H](C)O)C(=O)N1)[C@@H](C)O)C(C)C)C(=O)N[C@@H](Cc1ccc(O)cc1)C(=O)N[C@@H](CCC(N)=O)C(=O)N[C@@H](Cc1ccccc1)C(=O)N[C@H](C(=O)N[C@@H](CC(=O)O)C(=O)N[C@@H](CCCCN)C(=O)N[C@@H](CC(=O)O)C(=O)N[C@@H](CCCCN)C(=O)N[C@@H](CC(=O)O)C(=O)N[C@@H](CC(N)=O)C(=O)N[C@H](C(=O)N[C@@H](C)C(=O)N1CCC[C@H]1C(=O)N[C@@H](CCCNC(=N)N)C(=O)N[C@H](C(=O)N[C@@H](CC(N)=O)C(=O)N[C@H](C(=O)NCC(=O)N1CCC[C@H]1C(=O)N[C@@H](CC(N)=O)C(=O)NCC(=O)N[C@@H](Cc1ccc(O)cc1)C(N)=O)C(C)C)[C@@H](C)O)C(C)C)[C@@H](C)O [compound 84] (H-GCRTGTCTVQRLAHQIYQFTDKDKDNVAPRTNVGPNGY-NH2; disulfide 2-7; N-terminus assumed)
11 pM | 3.200% | CC[C@H](C)[C@H](NC(=O)[C@H](CCC(N)=O)NC(=O)[C@H](Cc1c[nH]cn1)NC(=O)[C@H](C)NC(=O)[C@H](CC(C)C)NC(=O)[C@H](CCCNC(=N)N)NC(=O)[C@H](CCC(N)=O)NC(=O)[C@@H](NC(=O)[C@@H](NC(=O)[C@@H]1CSSC[C@H](NC(=O)CN)C(=O)N[C@@H](CCCNC(=N)N)C(=O)N[C@@H]([C@@H](C)O)C(=O)NCC(=O)N[C@@H]([C@@H](C)O)C(=O)N1)[C@@H](C)O)C(C)C)C(=O)N[C@@H](Cc1ccc(O)cc1)C(=O)N[C@@H](CCC(N)=O)C(=O)N[C@@H](Cc1ccccc1)C(=O)N[C@H](C(=O)N[C@@H](CC(=O)O)C(=O)N[C@@H](CCCCN)C(=O)N[C@@H](CC(=O)O)C(=O)N[C@@H](CCCCN)C(=O)N[C@@H](CC(=O)O)C(=O)N[C@@H](CC(N)=O)C(=O)N[C@H](C(=O)N[C@@H](C)C(=O)N1CCC[C@H]1C(=O)N[C@@H](CCCNC(=N)N)C(=O)N[C@H](C(=O)N[C@@H](CC(N)=O)C(=O)N[C@H](C(=O)NCC(=O)N1CCC[C@H]1C(=O)N[C@@H](CCC(N)=O)C(=O)NCC(=O)N1C[C@H](O)C[C@H]1C(N)=O)C(C)C)[C@@H](C)O)C(C)C)[C@@H](C)O [compound 49] (H-GCRTGTCTVQRLAHQIYQFTDKDKDNVAPRTNVGPQG[Hyp]-NH2; disulfide 2-7; N-terminus assumed)
